≈ marks a conversion by molar mass, not a printed value. Like-named read-outs stand apart in the source and are kept apart here.
Key:
Strep. faecium ATCC 8043 = test: antimicrobial spectrum, agar dilution MIC; assay type: cell-based; conditions: BHI agar, 35°-37° C., 20-24 hours
[1] = tested on: Providencia stuartii CMX 640; test: antimicrobial spectrum, agar dilution MIC; assay type: cell-based; conditions: BHI agar, 35°-37° C., 20-24 hours
[2] = tested on: Strep. pyogenes M79061-98; test: antimicrobial spectrum, agar dilution MIC; assay type: cell-based; conditions: BHI agar, 35°-37° C., 20-24 hours
Bact. fragilis 784 [3] = conditions: BHI agar, 35°-37° C., 20-24 hours
Bact. fragilis UC-2 [4] = conditions: BHI agar, 35°-37° C., 20-24 hours
[5] = tested on: Lactobacillus Casei ATCC 7469; test: antimicrobial spectrum, agar dilution MIC; conditions: BHI agar, 35°-37° C., 20-24 hours
Strep. pyogenes 930 = test: antimicrobial spectrum, agar dilution MIC; conditions: BHI agar, 35°-37° C., 20-24 hours
Micrococcus luteus 9341 = test: antimicrobial spectrum, agar dilution MIC; conditions: BHI agar, 35°-37° C., 20-24 hours
E. coli SS = test: antimicrobial spectrum, agar dilution MIC; conditions: BHI agar, 35°-37° C., 20-24 hours
[6] = tested on: Klebsiella pneumoniae 8045; test: antimicrobial spectrum, agar dilution MIC; conditions: BHI agar, 35°-37° C., 20-24 hours
[7] = tested on: Pseudomonas aeruginosa 5007; test: antimicrobial spectrum, agar dilution MIC; conditions: BHI agar, 35°-37° C., 20-24 hours
[8] = tested on: Pseudomonas aeruginosa K799/WT; test: antimicrobial spectrum, agar dilution MIC; conditions: BHI agar, 35°-37° C., 20-24 hours
[9] = human, in vivo; cited from earlier work
Bact. fragilis 784 [10] = test: microbe, parasite or virus in culture; conditions: Bacteroides fragilis
Bact. fragilis UC-2 [11] = test: microbe, parasite or virus in culture; conditions: Bacteroides fragilis, UC2

With `CCC1OC(=O)C(C)C(OC2CC(C)(OC)CC(C)O2)C(C)C(OC2OC(C)CC(N(C)C)C2O)C(C)(O)CC(C)C(=O)C(C)C2OC(=O)OC12C` (stereo not drawn) [4"-deoxyerythromycin A 11,12-carbonate] the MIC (Strep. faecium ATCC 8043) was “.05 µg/mL”, the MIC [1] was 100 µg/mL (≈ 134 µM) and the MIC [2] was “.12 µg/mL”. For the same compound, the MIC (Bact. fragilis 784 [3]) was “.4 µg/mL”, the MIC (Bact. fragilis UC-2 [4]) was 1.6 µg/mL (≈ 2.15 µM) and the MIC [5] was “.01 µg/mL”. The MIC (Strep. pyogenes 930) was 100 µg/mL (≈ 134 µM), the MIC (Micrococcus luteus 9341) was “.02 µg/mL” and the MIC (E. coli SS) was “.2 µg/mL”. It also gave an MIC [6] of 25 µg/mL (≈ 33.6 µM), an MIC [7] of 100 µg/mL (≈ 134 µM) and an MIC [8] of 100 µg/mL (≈ 134 µM).
For `CC[C@H]1OC(=O)[C@H](C)[C@@H](O[C@H]2C[C@@](C)(OC)[C@@H](O)[C@H](C)O2)[C@H](C)[C@@H](O[C@@H]2O[C@H](C)C[C@H](N(C)C)[C@H]2O)[C@](C)(O)C[C@@H](C)C(=O)[C@H](C)[C@@H](O)[C@]1(C)O` [Erythromycin A, reference compound], the serum half-life [9] is given as 2 to 3 h, the MIC (Bact. fragilis 784 [10]) is given as 1.6 µg/mL (≈ 2.18 µM) and the MIC (Bact. fragilis UC-2 [11]) is given as 1.6 µg/mL (≈ 2.18 µM).

— patent US4681872A (priority 1985, dated 1987)
